Ten sequences from publication PMC5566978, “Human Leukocyte Antigen (HLA)-DRB1*15:01 and HLA-DRB5*01:01 Present Complementary Peptide Repertoires” (Frontiers in Immunology, 2017) can be followed below.

Where no end group is shown, it is not given here. A value given as a limit tells only on which side of the number the result lay.

One may read the IC50 as the point on the concentration scale where inhibition reaches its midpoint.

The target in experiment [1] is recombinant DR2b (DRA1*01:01/DRB1*15:01) (Homo sapiens, UniProt P01903+P01911). In words: Competition peptide-binding assay to recombinant DR2b. The conditions noted are these: competition with 1 µM biotinylated modified GAD555-567 peptide, wells coated with HLA-DR2b, europium-streptavidin time resolved fluorescence. Here is the method: (§1) The experimental affinity of different peptides to HLA-DR molecules was determined as previously described ([31]). Briefly, recombinant DR2b (DRA1*01:01/DRB1*15:01) and DR2a (DRA1*01:01/DRB5*01:01) proteins were used for peptide-binding assays. Increasing concentrations of each non-biotinylated test peptide were incubated in competition with 1 µM of the biotinylated GAD555-567 peptide ([…], modified from […] to bind to DRB1*15:01 and DRB5*01:01 in a single unambiguous register) in wells coated with HLA-DR2a or HLA-DR2b. After washing, residual biotinylated reference peptide was labeled using europium conjugated streptavidin (Perkin Elmer) and quantified using a Victor3 D time resolved fluorometer (Perkin Elmer). Peptide-binding curves were simulated by non-linear regression with Prism Software (version 4.03, GraphPad Software Inc.) using a sigmoidal dose–response curve. IC50 binding values were calculated from the resulting curves as the peptide concentration needed for 50% inhibition of reference peptide binding. Equivalent amounts of purified HLA-DR protein were plated on each plate, but similar amounts of total protein can have different levels of activity. Thus, different preparations of protein frequently give different levels of maximum counts (presumably based on differences in purity and the proportion of the protein that is functional). Indeed differences between different preparations of the same HLA-DR protein can be observed.
(§2) Figure 4 Experimental binding affinity of peptides sequenced from MGAR and (A) Binding to DR2a or (B) Binding to DR2b. Increased concentration of the peptides were incubated in wells coated with recombinant human leukocyte antigen (HLA)-DR2a or HLA-DR2b in competition with 1 µM biotinylated modified GAD555-567 peptide ([…], modified from […] to bind to DRB1*15:01 and DRB5*01:01 in a single unambiguous register) to generate binding curves. After washing, residual biotinylated reference peptide was labeled using europium-conjugated streptavidin and quantified. The Y-axis depicts raw europium counts, which is proportional to the amount of residual biotinylated peptide that remains bound to HLA class II. White-filled symbols represent peptides eluted from DR2a. Black-filled symbols represent peptides eluted from DR2b.

Experiment [2] concerns the target recombinant DR2a (DRA1*01:01/DRB5*01:01) (Homo sapiens, UniProt P01903+Q30154). In words: Competition peptide-binding assay to recombinant DR2a. The following applies: competition with 1 µM biotinylated modified GAD555-567 peptide, wells coated with HLA-DR2a, europium-streptavidin time resolved fluorescence. As to the method:
as §1, §2

For the sequence ELEELRAEQQRLKSQDL, the IC50 in experiment [1] was greater than 50 µM.
Turning to LEEFGRFASFEAQG, the 50% inhibitory concentration (IC50) in experiment [2] and in experiment [1] was greater than 50 µM in each case.
In the case of LEEFGRFASFEAQGA, the 50% inhibitory concentration (IC50) in experiment [2] and in experiment [1] was greater than 50 µM in each case.
On to LPSEKAIFLFVDKTVPQS, for which, in experiment [2], the “BINDING IC50 DR2a” value is “non-detectable affinity” and the IC50 was greater than 50 µM.
QKKEIHLYQTFVVQ: the half-maximal inhibitory concentration (IC50) in experiment [2] and in experiment [1] was greater than 50 µM throughout.
As for QKKEIHLYQTFVVQL, the concentration for half-maximal inhibition (IC50) in experiment [2] and in experiment [1] was greater than 50 µM each time.
Take QKKEIHLYQTFVVQLQDPR: the half-maximal inhibitory concentration (IC50) in experiment [2] and in experiment [1] was greater than 50 µM in each case.
As for QKKEIHLYQTFVVQLQDPREP, the IC50 in experiment [2] and in experiment [1] was greater than 50 µM each time.
As for QTKEFQVLKSLGKLAMG, the IC50 in experiment [1] was greater than 50 µM.
In the case of SQAEFEKAAEEVRHL, the IC50 is 5.8 µM in experiment [2] and greater than 50 µM in experiment [1].
